The text below walks through data of ChEMBL document CHEMBL5724558, “Image-based profiling of drug vulnerabilities in CRC organoids” (2024).

Holding throughout (format): functional, Homo sapiens
Common to all, as to design: dose or concentration left out as unconfirmed

The subject of assay [1] is Colon cancer organoid. The assay is described as follows: Image-based profiling of donated chemical probes and chemogenomic kinase set in O06 CRC organoid. Image analysis is performed on the sum area metric, and the data were normalized to the DMSO control. After imaging the organoid viability is measured using the OneGloEX Luciferase Assay System. The normalized viability data and sum area are reported.

For assay [2], the system named is Colon cancer organoid. The assay is described as follows: Image-based profiling of donated chemical probes and chemogenomic kinase set in O09 CRC organoid. Image analysis is performed on the sum area metric, and the data were normalized to the DMSO control. After imaging the organoid viability is measured using the OneGloEX Luciferase Assay System. The normalized viability data and sum area are reported.

Assay [3] concerns Colon cancer organoid. The assay is described as follows: Image-based profiling of donated chemical probes and chemogenomic kinase set in O21 CRC organoid. Image analysis is performed on the sum area metric, and the data were normalized to the DMSO control. After imaging the organoid viability is measured using the OneGloEX Luciferase Assay System. The normalized viability data and sum area are reported.

Each structure is given as a SMILES string. Values joined by “and” are separate entries in the source; they are usually repeats but may differ in a detail not shown here. Equal entries are not always repeated.

As for `CNC(=O)c1cc(C(=O)NC2CC2)cn(Cc2ccccc2)c1=O` [GSK620], the “Cell Viability” value was 87.0029% and 102.753% in assay [1] (Replication number 1); 87.2683% and 118.693% in assay [1] (Replication number 2); 52.8448% and 80.6552% in assay [2] (Replication number 1); 55.7609% and 83.862% in assay [2] (Replication number 2); 98.0477% and 88.9414% in assay [3] (Replication number 1); 114.221% and 102.991% in assay [3] (Replication number 2).

For `Nc1nc(NCc2ccccc2)nc(-c2ccccc2CO)n1` [Ogerin], the “Cell Viability” value in assay [1] (Replication number 1) was 105.073% and 119.514%; in assay [1] (Replication number 2) it was 91.1794% and 124.7%; in assay [2] (Replication number 1), 84.1314% and 95.0982%; in assay [2] (Replication number 2) it was 82.0321% and 100.912%; in assay [3] (Replication number 1), 116.019% and 92.2153%; in assay [3] (Replication number 2) it was 95.1453% and 93.8137%.

Take `C[C@H](c1ccc(F)cc1)N(Cc1cccc(C(=O)O)c1)C(=O)c1cnc2ccccc2c1` [PF-05105679]: the “Cell Viability” value in assay [1] (Replication number 1) was 106.225% and 110.304%; in assay [1] (Replication number 2) it was 129.169% and 147.587%; in assay [2] (Replication number 1), 96.3652% and 120.892%; in assay [2] (Replication number 2) it was 63.8781% and 75.356%; in assay [3] (Replication number 1) it was 102.98% and 107.115%; in assay [3] (Replication number 2) it was 83.9126% and 93.8775%.

Take `CCCOc1ccn2c(C(C)=O)cc(-c3ccccc3S(C)(=O)=O)c2c1`: the “Cell Viability” value in assay [1] (Replication number 1) was 138.616% and 118.389%; in assay [1] (Replication number 2), 149.88% and 120.685%; in assay [2] (Replication number 1) it was 82.358% and 82.5348%; in assay [2] (Replication number 2), 234.066% and 124.865%; in assay [3] (Replication number 1), 106.031% and 126.388%; in assay [3] (Replication number 2), 99.7688% and 110.084%.

Consider `CN(C)C(=O)Cn1cc(-c2ccc(-c3cncc4ccccc34)cc2)cn1`, for which the “Cell Viability” value in assay [1] (Replication number 1) is 73.9778% and 127.973%; in assay [1] (Replication number 2) it was 75.2678% and 99.5373%; in assay [2] (Replication number 1), 314.332% and 120.679%; in assay [2] (Replication number 2) it was 170.131% and 105.821%; in assay [3] (Replication number 1), 132.258% and 129.895%; in assay [3] (Replication number 2), 113.21% and 111.119%.

As to `O=C(NCCCN1CCOC1=O)c1cnc(NCc2cc(Br)ccc2Br)nc1NC1CCCC1`, the “Cell Viability” value in assay [1] (Replication number 1) was 128.504% and 125.145%; in assay [1] (Replication number 2), 109.486% and 115.731%; in assay [2] (Replication number 1), 172.879% and 128.436%; in assay [2] (Replication number 2) it was 143.806% and 111.114%; in assay [3] (Replication number 1), 88.4413% and 90.6749%; in assay [3] (Replication number 2) it was 101.16% and 88.408%.

Regarding `CC(C)(C)c1cc(NC(=O)Nc2ccc(-c3cn4c(n3)sc3cc(OCCN5CCOCC5)ccc34)cc2)no1` [QUIZARTINIB], the “Cell Viability” value in assay [1] (Replication number 1) is 39.693% and 48.7411%; in assay [1] (Replication number 2), 34.5672% and 63.5476%; in assay [2] (Replication number 1), 85.316% and 55.6023%; in assay [2] (Replication number 2) it was 92.2589% and 77.476%; in assay [3] (Replication number 1), 67.5016% and 73.0314%; in assay [3] (Replication number 2), 71.418% and 77.7258%.

As for `CCC(=O)N[C@H]1CC[C@@H](C(=O)N(C)c2ccc(-c3nc4ccccc4o3)cc2)C1` [BI 99179], the “Cell Viability” value is 21.7258% and 60.1874% in assay [1] (Replication number 1); 30.1767% and 66.0942% in assay [1] (Replication number 2); 70.0522% and 46.8277% in assay [2] (Replication number 1); 52.7511% and 35.3414% in assay [2] (Replication number 2); 140.434% and 105.951% in assay [3] (Replication number 1); 114.409% and 97.9592% in assay [3] (Replication number 2).

With `c1ccc(C2CCN(c3cnc4c(N5CCOCC5)nccn34)CC2)cc1`, the “Cell Viability” value in assay [1] (Replication number 1) was 145.966% and 120.992%; in assay [1] (Replication number 2), 117.4% and 104.103%; in assay [2] (Replication number 1), 180.042% and 107.897%; in assay [2] (Replication number 2) it was 162.986% and 102.452%; in assay [3] (Replication number 1), 115.301% and 98.0422%; in assay [3] (Replication number 2), 102.772% and 73.1066%.

In the case of `CO[C@H]1CNC[C@@H](OCC2CCC(F)(F)CC2)[C@@H]1Nc1ncc(-c2cncc(C)c2)c2cc(C)c(=O)[nH]c12`, the “Cell Viability” value was 159.604% and 115.973% in assay [1] (Replication number 1); 145.077% and 98.9379% in assay [1] (Replication number 2); 183.516% and 118.934% in assay [2] (Replication number 1); 127.49% and 119.734% in assay [2] (Replication number 2); 117.954% and 107.577% in assay [3] (Replication number 1); 97.9494% and 89.6778% in assay [3] (Replication number 2).
